pIC50: −log10 of the molar value. Marks after values point to notes of the source that are not given here.

The subject of the first series is Liver cancer SK-hep1 cells. Nature of the series: In vitro antitumor activity test (MTT), SK-hep1. It counts as cell-based. As to conditions: Homo sapiens, 24 h. How it is done: (§1) 13 human tumor cell lines were selected and cultured in RPMI-1640 medium (Gibco company) containing 10% inactivated fetal bovine serum, 100 U/ml penicillin and 100 U/ml streptomycin, cultured at 37° C. in a 5% CO2 incubator, and passaged once every 2 days. Using the MTT method, cells in the logarithmic growth phase were digested with 0.25% trypsin, centrifuged at 1000 r/min for 5 min, 8×10^3 cells were added to each well, and seeded in a 96-well plate, and 180 μl of cell suspension was added to each well, and a blank was set at the same time. The 96-well plate inoculated with tumor cells was placed in a carbon dioxide incubator for 24 hours, and then 20 μl of the drug was added, and an equal volume of culture medium was added to the blank control well, and the drug was divided into 8 concentrations from 50 μg/L to 0.4 μg/L. Three duplicate wells were set for each drug concentration and placed in an incubator for 24 h. 10 μl of MTT solution (5 mg/ml) was added to each well, and the culture was continued for 4 h. The supernatant was aspirated and discarded, 100 μl of dimethyl sulfoxide (DMSO) solution was added to each well, placed on a micro shaker for 10 min, and the absorbance (A value) was measured at a wavelength of 492 nm in a microplate reader, and the inhibition rate of the drug on tumor cells was calculated according to the following formula.
(§2) In this test, the IC50 value of the compound on tumor cells was calculated by the Origin software according to the inhibition rate of the compound. AC-201 in the following table was the abbreviation of PL-AC-201, and so on.
In turn, `C/C(=C1/c2ccc(F)cc2C(CC(=O)NC(Cc2ccc(-c3ccccc3)cc2)C(=O)NC2CC(C)(C)NC(C)(C)C2)C1C)c1ccc([S+](C)[O-])cc1` (centres unmarked) [PL-AC-204] gave a pIC50 of 7.63.

The next series has as its system Lung cancer H460 cells. Put plainly: In vitro antitumor activity test (MTT), H460. As to conditions: Homo sapiens, NCI-H460, 24 h. It counts as cell-based. How it is done: as §1, §2
Regarding `C/C(=C1/c2ccc(F)cc2C(CC(=O)NC(Cc2ccc(-c3ccccc3)cc2)C(=O)NC2CC(C)(C)NC(C)(C)C2)C1C)c1ccc([S+](C)[O-])cc1` (centres unmarked) [PL-AC-204], the pIC50 is 7.67.

The test system of a further series is Breast cancer MCF-7 cells. Put plainly: In vitro antitumor activity test (MTT), MCF-7. The class given is cell-based. As to conditions: Homo sapiens, MCF7; Breast cancer MCF-7, MTT, 24 h. How it is done:
as §1, §2
`C/C(=C1/c2ccc(F)cc2C(CC(=O)NC(Cc2ccc(-c3ccccc3)cc2)C(=O)NC2CC(C)(C)NC(C)(C)C2)C1C)c1ccc([S+](C)[O-])cc1` (centres unmarked) [PL-AC-204] showed a pIC50 of 7.64.

The test system of the next series is Pancreatic cancer Bxpc-3 cells. Put plainly: In vitro antitumor activity test (MTT), Bxpc-3. The class given is cell-based. As to conditions: Homo sapiens; Pancreatic cancer Bxpc-3, MTT, 24 h. How it is done: as §1, §2
As for `C/C(=C1/c2ccc(F)cc2C(CC(=O)NC(Cc2ccc(-c3ccccc3)cc2)C(=O)NC2CC(C)(C)NC(C)(C)C2)C1C)c1ccc([S+](C)[O-])cc1` (centres unmarked) [PL-AC-204], the pIC50 was 7.31.

A further series deals with Liver cancer HepG-2 cells. Put plainly: In vitro antitumor activity test (MTT), HepG-2. The class given is cell-based. As to conditions: Homo sapiens, HepG2; Liver cancer HepG-2, MTT, 24 h. Here is the method: as §1, §2
As to `C/C(=C1/c2ccc(F)cc2C(CC(=O)NC(Cc2ccc(-c3ccccc3)cc2)C(=O)NC2CC(C)(C)NC(C)(C)C2)C1C)c1ccc([S+](C)[O-])cc1` (centres unmarked) [PL-AC-204], the pIC50 is 7.80.

The next series deals with Colon cancer HT29 cells. Nature of the series: In vitro antitumor activity test (MTT), HT29. The class given is cell-based. As to conditions: Homo sapiens, HT-29, 24 h. Here is the method:
as §1, §2
The molecule `C/C(=C1/c2ccc(F)cc2C(CC(=O)NC(Cc2ccc(-c3ccccc3)cc2)C(=O)NC2CC(C)(C)NC(C)(C)C2)C1C)c1ccc([S+](C)[O-])cc1` (centres unmarked) [PL-AC-204] gave a pIC50 of 7.43.

The test system of another series is Lung cancer H1299 cells. Put plainly: In vitro antitumor activity test (MTT), H1299. The class given is cell-based. As to conditions: Homo sapiens, NCI-H1299, 24 h. Here is the method:
as §1, §2
Turning to `C/C(=C1/c2ccc(F)cc2C(CC(=O)NC(Cc2ccc(-c3ccccc3)cc2)C(=O)NC2CC(C)(C)NC(C)(C)C2)C1C)c1ccc([S+](C)[O-])cc1` (centres unmarked) [PL-AC-204], the pIC50 is 7.67.

The next series deals with Cervical cancer Hela cells. Nature of the series: In vitro antitumor activity test (MTT), Hela. It counts as cell-based. As to conditions: Homo sapiens, 24 h. How it is done:
as §1, §2
The molecule `C/C(=C1/c2ccc(F)cc2C(CC(=O)NC(Cc2ccc(-c3ccccc3)cc2)C(=O)NC2CC(C)(C)NC(C)(C)C2)C1C)c1ccc([S+](C)[O-])cc1` (centres unmarked) [PL-AC-204] had a pIC50 of 7.72.

Test system in the next series: not listed separately
Put plainly: Acute toxicity test of single administration to ICR mice. As to conditions: mouse, in vivo, intravenous, single tail vein injection, observed 7 days. How it is done:
ICR mice, 18-22 g, were raised in a common-grade animal room, fed with common feed, and ingested freely. The group distance and dose were determined after exploring the Dm and Dn of the compounds of the examples. Five concentrations of the compounds of the examples were formulated at the desired dose. The corresponding doses of drugs were injected into the tail vein according to body weight, and the blank control group was injected with normal saline. Immediately after administration, the performance and death of each animal were observed and recorded, and the possible toxic reaction or death of animals within 7 days after a single administration was observed and recorded.
`C/C(=C1/c2ccc(F)cc2C(CC(=O)NC(Cc2ccc(-c3ccccc3)cc2)C(=O)NC2CC(C)(C)NC(C)(C)C2)C1C)c1ccc([S+](C)[O-])cc1` (centres unmarked) [PL-AC-204] showed an LD50 at 7 days of 29.9 mg/kg.

A further series has as its system HepG-2 liver tumors. Put plainly: Transplanted tumor in nude mice, intraperitoneal, HepG-2. It counts as in vivo, BALB/c nude mice. As to conditions: HepG-2, 5 mg/kg i.p. once every 3 days, 8 administrations. How it is done: BALB/c nude mice were used to inoculate Bel-7402, HepG-2 and SK-hep1 liver tumors according to the transplanted tumor research method under aseptic operation, and the cell density was not less than 5×10^6/ml, 0.2 ml was inoculated subcutaneously in the axilla of the right hind limb of each mouse. After the cells were inoculated, the cells were administered intraperitoneally (concentration: 5 mg/kg), once every 3 days, for a total of 8 administrations. After the 2nd day of drug withdrawal, all tumor-bearing mice were sacrificed, and their body weight, tumor weight and tumor inhibition were weighed.
Consider `C/C(=C1/c2ccc(F)cc2C(CC(=O)NC(Cc2ccc(-c3ccccc3)cc2)C(=O)NC2CC(C)(C)NC(C)(C)C2)C1C)c1ccc([S+](C)[O-])cc1` (centres unmarked) [PL-AC-204], for which the Tumor inhibition rate is recorded as 65.1** % and the Tumor weight is listed as 576.3 ± 10.7 mg.

The same series, now with this note: HepG-2 tumor-bearing BALB/c mice, 5 mg/kg i.p. once every 3 days, 8 administrations.
Turning to `C/C(=C1/c2ccc(F)cc2C(CC(=O)NC(Cc2ccc(-c3ccccc3)cc2)C(=O)NC2CC(C)(C)NC(C)(C)C2)C1C)c1ccc([S+](C)[O-])cc1` (centres unmarked) [PL-AC-204], the “Body Weight After administration” value stood at 23.1 ± 1.0 g.

The subject of the next series is 13 human tumor cell lines. Nature of the series: Average IC50 over the tumor cell lines (MTT). The class given is cell-based. As to conditions: mean IC50 for each tumor, read-out: AverageIC50. Here is the method: as §1, §2
The ratio of the hemolytic concentration MHC of the compound to the mean IC50 for each tumor was referred to as the therapeutic index (TI). The safety of the compound was evaluated by the therapeutic index. The higher the therapeutic index, the greater the safety range of the compound.
Turning to `C/C(=C1/c2ccc(F)cc2C(CC(=O)NC(Cc2ccc(-c3ccccc3)cc2)C(=O)NC2CC(C)(C)NC(C)(C)C2)C1C)c1ccc([S+](C)[O-])cc1` (centres unmarked) [PL-AC-204], the pIC50 was 7.55.

Another series deals with human red blood cells. Put plainly: Detection of hemolytic activity. It counts as cell-based. As to conditions: hemolytic concentration, in nM. Here is the method: 2-3 ml of human blood was drawn using an anticoagulant tube, thoroughly mixed, and kept at 4° C. for later use. 2 ml of blood was aspirated and added with 2-3 ml of PBS, followed by gently pipetting and centrifugation for 5 min at 1000 rpm, which was repeated 3-4 times. After the last centrifugation, PBS was aspirated, PBS was added to 40 ml (20 times the volume), and the number of blood cells at this time was 2×10^8 cells/ml. The red blood cell suspension was added to the plate (U-shaped 96-well plate), and 70 μl/well was used as a negative well. Only PBS was added to blank wells, 140 μl/well. 2 ml of the red blood cell suspension was centrifuged, PBS was discarded, 2 ml of pure water was added, mixed well, and 140 μl/well was used as a positive well. The diluted polypeptide solutions of different concentrations were added to the plate, 70 μl/well. Incubated at 37° C., 87 rpm, shaken for 2h, centrifuged for 5 min at 3000 rpm. The OD value measured by microplate reader: After centrifugation, 90 μl of supernatant was drawn and transferred to a flat-bottom 96-well plate, and the OD value at 578 nm was measured by microplate reader. ODtest-OD negative >0.1 (the first concentration that met the conditions was MHC).
For the molecule `C/C(=C1/c2ccc(F)cc2C(CC(=O)NC(Cc2ccc(-c3ccccc3)cc2)C(=O)NC2CC(C)(C)NC(C)(C)C2)C1C)c1ccc([S+](C)[O-])cc1` (centres unmarked) [PL-AC-204], the MHC was found to be 4.1e+06 nM.

Still in this series, the particulars now being: human red blood cells, 37° C., 2h; first concentration with ODtest-OD negative >0.1.
`C/C(=C1/c2ccc(F)cc2C(CC(=O)NC(Cc2ccc(-c3ccccc3)cc2)C(=O)NC2CC(C)(C)NC(C)(C)C2)C1C)c1ccc([S+](C)[O-])cc1` (centres unmarked) [PL-AC-204] returned an MHC of 3000 µg/mL.

In a further series the test system is Liver cancer Bel-7402 cells. Put plainly: In vitro antitumor activity test (MTT), Bel-7402. The class given is cell-based. As to conditions: Homo sapiens; Liver cancer Bel-7402, MTT, 24 h. How it is done:
as §1, §2
Take `C/C(=C1/c2ccc(F)cc2C(CC(=O)NC(Cc2ccc(-c3ccccc3)cc2)C(=O)NC2CC(C)(C)NC(C)(C)C2)C1C)c1ccc([S+](C)[O-])cc1` (centres unmarked) [PL-AC-204]: the pIC50 was 7.39.

A further series deals with Human osteosarcoma MG63 cells. Nature of the series: In vitro antitumor activity test (MTT), MG63. It counts as cell-based. As to conditions: MG-63, 24 h. Here is the method: as §1, §2
`C/C(=C1/c2ccc(F)cc2C(CC(=O)NC(Cc2ccc(-c3ccccc3)cc2)C(=O)NC2CC(C)(C)NC(C)(C)C2)C1C)c1ccc([S+](C)[O-])cc1` (centres unmarked) [PL-AC-204] gave a pIC50 of 7.61.

A further series deals with Melanoma B16 cells. Nature of the series: In vitro antitumor activity test (MTT), B16. It counts as cell-based. As to conditions: 24 h. Here is the method: as §1, §2
Take `C/C(=C1/c2ccc(F)cc2C(CC(=O)NC(Cc2ccc(-c3ccccc3)cc2)C(=O)NC2CC(C)(C)NC(C)(C)C2)C1C)c1ccc([S+](C)[O-])cc1` (centres unmarked) [PL-AC-204]: the pIC50 is 7.52.

Another series concerns Lung cancer H292 cells. Nature of the series: In vitro antitumor activity test (MTT), H292. It counts as cell-based. As to conditions: Homo sapiens, NCI-H292, 24 h. How it is done:
as §1, §2
The molecule `C/C(=C1/c2ccc(F)cc2C(CC(=O)NC(Cc2ccc(-c3ccccc3)cc2)C(=O)NC2CC(C)(C)NC(C)(C)C2)C1C)c1ccc([S+](C)[O-])cc1` (centres unmarked) [PL-AC-204] gave a pIC50 of 7.56.

In another series the test system is Lung cancer A549 cells. Nature of the series: In vitro antitumor activity test (MTT), A549. It counts as cell-based. As to conditions: Homo sapiens, 24 h. Here is the method: as §1, §2
Molecule `C/C(=C1/c2ccc(F)cc2C(CC(=O)NC(Cc2ccc(-c3ccccc3)cc2)C(=O)NC2CC(C)(C)NC(C)(C)C2)C1C)c1ccc([S+](C)[O-])cc1` (centres unmarked) [PL-AC-204] had a pIC50 of 7.53.

For the origin of these results see US12552747B2, “Amino acid derivative containing non-steroidal anti-inflammatory drug structure and preparation method and application thereof” (priority 2020, dated 2026).
